# In US7122570B2, “Tetrahydrocarbazol derivatives as ligands for G-protein-coupled receptors (GPCR)” (Zentaris AG, priority 2001, dated 2006):
# Assays:
# hGnRH-Receptor = biological target: T1, hGnRH-Receptor (Homo sapiens, UniProt P30968); test: GnRH receptor assay: competition binding with 125I-labeled buserelin on cell membranes; settings: competition with 125I-buserelin
# T1 construct: expressed in transfected cells; host or cells: CHO-3 cells (Schmid et al., J. Biol. Chem. 275 (2000), 9193-9200), membrane preparation
# T1 sequence (P30968 1-328): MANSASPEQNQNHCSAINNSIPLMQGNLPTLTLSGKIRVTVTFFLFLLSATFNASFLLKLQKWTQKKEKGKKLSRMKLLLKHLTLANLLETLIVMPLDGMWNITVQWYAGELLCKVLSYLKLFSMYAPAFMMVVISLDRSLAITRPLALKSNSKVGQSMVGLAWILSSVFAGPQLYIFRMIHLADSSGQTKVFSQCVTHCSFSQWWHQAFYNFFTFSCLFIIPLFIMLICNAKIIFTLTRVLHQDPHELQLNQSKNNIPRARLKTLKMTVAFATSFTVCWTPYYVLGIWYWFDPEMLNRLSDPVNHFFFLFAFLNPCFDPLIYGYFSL
# Method: Buserelin is ordered from Welding (Frankfurt/Main, Germany). The compound is labeled with ^125I by use of the chloramine T-method and Na^125I (4000 Ci/mmol; Amersham-Buchler, Brunswick, Germany). The labeled substance is purified by reverse phase HPLC on a Spherisorb ODS II column (250×4 mm, particle size 3 μm) by elution with 50% acetonitrile/0.15% trifluoroacetic acid at a flow rate of 0.5 ml/minute. The specific activity is 2000 Ci/mmol.
# Alpha T3-1 cells (Bilezikjian et al., Mol. Endocrinol 5 (1991), 347–355) are cultivated in DMEM medium (Gibco-BRL, Eggenstein-Leopoldshafen, Germany) with penicillin (100 I.U./ml), streptomycin (0.1 mg/ml) and glutamine (0.01 mol/l) and 10% fetal calf serum (FCS; PAA Laboratories, Coelbe, Germany) on plastic tissue culture plates (Nunc, 245×245×20 mm). CHO-3 cells (Schmid et al., J. Biol. Chem. 275 (2000), 9193–9200) are cultivated under identical conditions, apart from the fact that Ham's F12 medium (Gibco-BRL) is used.
# Ten confluent cell culture plates are flushed twice with 50 ml of phosphate-buffered salt solution (PBS). The cells are harvested by scraping them off with a rubber scraper in 5 ml of PBS and sedimented by centrifuging in a laboratory centrifuge (Heraeus) at 800 rpm for 10 minutes. The cell pellet is resuspended in 5 ml of 0.25 mol/l of saccharose/0.01 mol/l of triethanolamine, pH 7.4. The cells are lysed by three cycles of freezing in dry ice/ethanol bath and thawing at room temperature. The lysate is centrifuged at 900 rpm for 10 minutes, and the sediment is discarded. The supernatant is centrifuged at 18,000 rpm in a Sorvall SS34 rotor for 30 minutes. The pellet (cell membranes) is suspended by Potters in 5 ml of assay buffer (0.25 mol/l of saccharose, 0.01 mol/l of triethanolamine, pH 7.5, 1 mg/ml of ovalbumin) and stored in 200 μl of aliquots at −20° C. The determination of protein is carried out according to the Bradford method (Anal. Biochem. 72 (1976), 248–254).
# Binding studies for competition curves are performed as triplicates. A test sample contains 60 μl of cell membrane suspension (10 μg of protein for αT3-1 cells or 40 μg of protein for CHO3 cells), 20 μl of ^125I-labeled buserelin (100,000 Ipm per sample for competition curves and between 1,500 and 200,000 Ipm for saturation experiments) and 20 μl of test buffer or test compound solution. The test compounds are dissolved in distilled water or 50% ethanol. Serial dilutions (5×10^−6 mol/l to […]) are produced in test buffer. The unspecific binding is determined in the presence of excess unlabeled buserelin (10^−6 mol/1). The test samples are incubated for 30 minutes at room temperature. Bonded and free ligands are separated by filtration (Whatman GF/C-filter, 2.5 cm diameter) with use of an Amicon 10x collecting device and washed twice with 5 ml of 0.02 mol/l of Tris/HCl, pH 7.4. The filters are moistened with 0.3% polyethylenimine (Serva; Heidelberg, Germany) for 30 minutes to reduce the unspecific binding. The radioactivity that was held up by the filter is determined in a 5-channel gamma-counter (Wallac-LKB 1470 Wizard).
# In the table below, the IC50 values that are obtained for the preferred compounds, as defined above, are indicated.
# GnRH receptor [1] = biological target: T2, GnRH receptor (Homo sapiens, UniProt P30968); test: Ca2+ release, human; type: cell-based; settings: read-out: Ca^2+ Release Human IC50
# T2 sequence (P30968 1-328): T1 sequence (P30968 1-328)
# GnRH receptor [2] = biological target: T2, GnRH receptor; test: Receptor binding assay with 125I-triptorelin on transfected LTK cells; settings: competition with 125I-triptorelin, whole LTK cells, 60 minutes at 37° C.
# Method: ^125I-Triptorelin [^125I-(D)-Trp6-GnRH] is ordered from the Biotrend Company (Cologne, Germany). The specific activity in each case is 2.13 Ci/mmol. All other chemicals are ordered from commercial sources at the highest available purity.
# Transfixed LTK′ cells (ATCC No. CCL-11.3) are cultivated in DMEM medium (Invitrogen Life Technologies, Germany) with penicillin (100 I.U./ml), streptomycin (0.1 mg/ml) and glutamine (0.01 mol/l) and 10% fetal calf serum (FCS; Invitrogen Life Technologies, Germany) on plastic tissue culture plates (Nunc, Germany, 245×245×20 nun).
# 80% confluent cell culture plates are washed twice with 50 ml of phosphate-buffered salt solution (PBS) and dissolved below with 0.01 M EDTA solution. The cells are pelletized by centrifuging at 200×g for 5 minutes in a laboratory centrifuge (Kendro, Germany). The cell pellet is resuspended in 3 ml of binding medium (DMEM; 10 mmol of Hepes; 0.5% BSA; 0.1% NaN3; 1 g/l of bacitracin (freshly added, stock 100×); 0.1 g/l of SBTI (freshly added, stock 1000×), and the cell count is determined by means of trypan blue staining in a Neubauer counting chamber. The cell suspension is set with binding medium to a concentration of 5×10^5 Z/0.05 ml.
# Binding tests for competition curves are performed as duplicates. The test substances are used as 10 mmol DMSO solutions. They are diluted with binding medium to 4× the final concentration used. 25 μl of the substance dilution is mixed with 25 μl of tracer solution (^125I-triptorelin). The concentration of tracer is set to about 50,000 cpm (measured in Cobra II, γ-counter, PE Liefe Science, Germany) in the final reaction volume of 100 μl.
# 200 μl of a silicone/paraffin oil mixture (84%:16%) is introduced into 650 μl pointed-bottom tubes (Roth, Germany). 50 μl of the cell suspension is pipetted thereto and subsequently 50 μl of the test substance/tracer mixture. The tubes are sealed and incubated for 60 minutes at 37° C. in an incubator that rotates via the top. After incubation, the samples are centrifuged in a centrifuge (Kendro, Germany) at 900 rpm and subsequently flash-frozen in liquid N2. The tip with the cell pellet is cut off and inserted into the prepared counting tube (Roth, Germany). The remainder of the pointed-bottom tube with the remaining supernatant is also inserted into a counting tube. The measurement is made in a γ-counter for 1 minute/sample.
# The evaluation of the samples is carried out after calculating the specific bond in comparison to untreated cells, after the unspecific bond (excess unlabeled ligand, 1 mmol) is removed by means of GraphPad Prism (GraphPad Software Inc., USA).
SMILES,IC50 (hGnRH-Receptor),IC50 (GnRH receptor [1]),EC50 (GnRH receptor [2])
"COc1cccc2c3c([nH]c12)CC[C@](NC(=O)Cc1ccc(Cl)cc1)(C(=O)N1CCC[C@H]1C(N)=O)C3 [Compound 189a, (2S)-1-[[(3R)-3-[[(4-Chlorophenyl)acetyl]-amino]-2,3,4,9-tetrahydro-8-methoxy-1H-carbazol-3-yl]carbonyl]-2-pyrrolidine-carboxamide]",700 nM,500 nM,
"CC[C@H](C)[C@H](NC(=O)OCc1ccccc1)C(=O)N[C@]1(C(=O)N2C3CCCCC3C[C@H]2C(N)=O)CCc2[nH]c3ccccc3c2C1 (stereo partly drawn) [Compound 190a, Phenylmethyl [(1S,2S)-1-[[[(3R)-3-[[(2S)-2-(aminocarbonyl)octahydro-1H-indol-1-yl]-carbonyl]-2,3,4,9-tetrahydro-1H-carbazol-3-yl]-amino]carbonyl]-2-methylbutyl]carbamate]",2000 nM,500 nM,
"CC[C@H](C)[C@H](NC(=O)OCc1ccccc1)C(=O)N[C@]1(C(=O)N[C@H](C(=O)NC)C(C)C)CCc2[nH]c3ccccc3c2C1 [Compound 222a, Phenylmethyl [(1S,2S)-2-methyl-1-[[[(3R)-2,3,4,9-tetrahydro-3-[[[(1S)-2-methyl-1-[(methylamino)carbonyl]-propyl]amino]carbonyl]-1H-carbazol-3-yl]amino]carbonyl]-butyl]carbamate]",2500 nM,3000 nM,
"CC(C)[C@H](NC(=O)[C@@]1(NCCCCCCc2ccccc2)CCc2[nH]c3ccccc3c2C1)C(N)=O [Compound 234a, (3R)-N-[(1S)-1-(Aminocarbonyl)-2-methylpropyl]-2,3,4,9-tetrahydro-3-[(6-phenylhexyl)amino]-1H-carbazole-3-carboxamide]",9000 nM,1000 nM,
"CC[C@H](C)[C@H](NC(=O)OCc1ccccc1)C(=O)N[C@]1(C(=O)N[C@H](CO)C(C)C)CCc2[nH]c3ccccc3c2C1 [Compound 267a, Phenylmethyl [(1S,2S)-1-[[[(3R)-3-[[[(1S)-1-(hydroxymethyl)-2-methylpropyl]amino]-carbonyl]-2,3,4,9-tetrahydro-1H-carbazol-3-yl]amino]carbonyl]-2-methylbutyl]carbamate]",400 nM,500 nM,
"c1ccc(CCCC2(CNCc3ccccn3)CCc3[nH]c4ccccc4c3C2)cc1 (centres unmarked) [Compound 279, 2,3,4,9-Tetrahydro-3-(3-phenylpropyl)-N-(2-pyridinylmethyl)-1H-carbazole-3-methanamine]",2000 nM,3000 nM,
"Clc1cc(Cl)c2[nH]c3c(c2c1)CC(CCCc1ccccc1)(CNCc1ccccn1)CC3 (centres unmarked) [Compound 283, 6,8-dichloro-2,3,4,9-tetrahydro-3-(3-phenylpropyl)-N-(2-pyridinylmethyl)-1H-carbazole-3-methanamine]",1000 nM,3000 nM,
"CC(C)[C@@H](CO)NCC1(CCCc2ccccc2)CCc2[nH]c3ccccc3c2C1 (stereo partly drawn) [Compound 284, (2S)-3-Methyl-2-[[[2,3,4,9-tetrahydro-3-(3-phenylpropyl)-1H-carbazol-3-yl]methyl]-amino]-1-butanol]",7000 nM,7000 nM,
"CC[C@H](C)[C@H](NC(=O)OCc1ccccc1)C(=O)N[C@]1(C(=O)N[C@H](C(N)=O)C(C)(C)C)CCc2[nH]c3c(Cl)cc(Cl)cc3c2C1 [Compound 298, Phenylmethyl [(1S,2S)-1-[[[(3R)-3-[[[(1S)-1-(aminocarbonyl)-2,2-dimethylpropyl]amino]carbonyl]-6,8-dichloro-2,3,4,9-tetrahydro-1H-carbazol-3-yl]amino]car-bonyl]-2-methylbutyl]carbamate]",,,288 nM
"CC[C@H](C)[C@H](NC(=O)[C@@]1(NC(=O)[C@H](CCc2ccc(O)cc2)NC(=O)OCc2ccccc2)CCc2[nH]c3c(Cl)cc(Cl)cc3c2C1)C(N)=O [Compound 303, Phenylmethyl [(1S)-1-[[[(3R)-3-[[[(1S,2S)-1-(aminocarbonyl)-2-methylbutyl]amino]carbonyl]-6,8-dichloro-2,3,4,9-tetrahydro-1H-carbazol-3-yl]amino]car-bonyl]-3-(4-hydroxyphenyl)-propyl]carbamate]",,,21 nM
"CC[C@H](C)[C@H](NC(=O)[C@@]1(NC(=O)[C@H](CC(C)C)NC(=O)OCc2ccccc2)CCc2[nH]c3c(Cl)cc(Cl)cc3c2C1)C(N)=O [Compound 305, Phenylmethyl [(1S)-1-[[[(3R)-3-[[[(1S,2S)-1-(aminocarbonyl)-2-methylbutyl]amino]carbonyl]-6,8-dichloro-2-3,4,9-tetrahydro-1H-carbazol-3-yl]amino]car-bonyl]-3-methylbutyl]carbamate]",,,56 nM
"CC(C)C[C@H](NC(=O)[C@@]1(NC(=O)[C@H](CC(C)C)NC(=O)OCc2ccccc2)CCc2[nH]c3c(Cl)cc(Cl)cc3c2C1)C(N)=O [Compound 306, Phenylmethyl [(1S)-1-[[[(3R)-3-[[[(1S)-1-(aminocarbonyl)-3-methylbutyl]amino]carbonyl]-6,8-dichloro-2,3,4,9-tetrahydro-1H-carbazol-3-yl]amino]car-bonyl]-3-methylbutyl]carbamate]",,,77 nM
